Data on one molecule can be found in patent US20220409578A1, “FUNCTIONALIZED 1,3-BENZENE DIOLS AND THEIR METHOD OF USE FOR THE TREATMENT OF RADIATION DERMATITIS AND OTHER SKIN DISORDERS” (KANNALIFE SCIENCES, INC., priority 2019, published 2022).

Molecules are shown by their SMILES.

One data set has as its system TNFα. The experiment in a line: TNFα release from UV-B irradiated human epidermal keratinocytes (ELISA). The format is cell-based. The note with it: Keratinocyte, light or radiation study, UV-B 25 mJ/cm^2 (280-312 nm), read-out: IC50 of TNFα inhibition. The protocol:
Normal human epidermal keratinocytes cultures were utilized to measure the release of proinflammatory cytokines and chemokines. Primary epidermal keratinocytes from neonatal donors were used from human origin and purchased from Thermo-Fisher (Cat No. A13401). […] Cells were cultured until the second passage and then acclimated for 48 hours more before UV-B irradiation. Dosing procedures and cell groups were identified using appropriate cell culture 24-well plates. The cell culture incubator was set at 5% v/v CO2 with temperature and humidity maintained at 36-38° C. and 40-70%, respectively. The test and control substances were administered to HKGS-depleted medium in triplicates. A fixed 5 μL/well from 100× stock dose volume was administered to 500 μL of media to each cell culture well on Day 3 and pre-incubated for 6 hours and then post-UVB incubated for 18 hours. […] Media supernatants were harvested and analyzed for TNFα and IL-1β levels by ELISA method. Cytokine levels were assessed from cell culture media supernatants using BD Biosciences OptEIA™ Human TNFα (Cat. No. 555212) and IL-1β (Cat. No. 557953) and ELISA set kit and Reagent Set B (Cat. No. 550534) according the manufacture's specifications. Absorbance was measured at 450 nm using a plate reader and calculated cytokine levels were determined from a standard curve.

Data set [1] deals with human dermal fibroblast cells. Type of data set: cell-based. Particulars: 24 h. Here is the method:
Primary dermal fibroblasts cells of human origin were cultured in vitro using standard conditions (37° C., 95% v/v air, 5% v/v CO2). Primary dermal fibroblasts from neonatal donor were used from human origin and purchased from Thermo-Fisher (Cat No. […]). […] Cells were cultured until the second passage and then acclimated for 48 hours before UVA irradiation and dosing procedures conducted in 24-well plates. On Day 3, test materials were dosed to cell culture media and pre-incubated for 6 hours. Treatment media was then removed and replaced with phosphate buffer saline (PBS) without test materials and Ultraviolet-A (UV-A) was irradiated at 12.5 J/cm^2 using FS-20/T-12 bulbs (315-400 nm). After UV-A irradiation, PBS was replaced with fresh DMEM medium with test materials and incubated for 18 hours at standard culture conditions. After incubation, culture medium supernatants were harvested and used to measure human IL-6 levels by ELISA method. In vitro dosing route was selected to test the activity of KLS-13022 after pro-inflammatory inducer UV-A irradiation, since isolated human cell culture provide direct activity indication and specific cell-type effects. Human cells were selected as relevant to cell types within skin tissues for this development program. […] Absorbance was measured at 490 nm using plate reader and cell viability was calculated as a percent of control. […]

Data set [2] is described as follows: Antioxidant capacity (ABTS/metmyoglobin assay). Type of data set: biochemical. The note with it: OD 750 nm, 15 minutes after hydrogen peroxide. Here is the method: Antioxidant capacity: The purpose of this study was to evaluate the overall antioxidant capacity of KLS-13022 for the ability to inhibit the oxidation of ABTS. (2,2′-Azino-di-[3-ethylbenzthiazoline sulphonate]) to ABTS.^+ by metmyoglobin. Ascorbic acid (Vitamin C) was used as positive antioxidant control in the assay. The testing involved the suppression of optical density (OD) at 750 nm to a degree, which is proportional to an effective oxidation inhibition. Neat solutions were prepared for materials formulated in HPLC-grade water (ascorbic acid) or 200-proof ethanol (KLS-13022). Serial dilutions were prepared for each material and mixed with metmyoglobin enzyme in assay buffer solution. All samples were compared to vehicle-only treated samples used as negative oxidation inhibition. Optical density changes at 750 nm were evaluated 15 minutes after addition of hydrogen peroxide to each sample. Average absorbance was calculated and plotted for each sample concentration. Effective antioxidant inhibition activity based on the change of absorbance of blank (vehicle-only) sample (no material added). […] The Antioxidant assay kit was obtained from Cayman Chemical Co. (Ann Arbor, Mich.). The assay consisted in the evaluation of the overall antioxidant capacity of test materials for the ability to inhibit the oxidation of ABTS. to ABTS.^+ by metmyoglobin. […]

In the case of `C=C(C)[C@@H]1CCC(C)=C[C@H]1c1c(O)cc(CC2CN(C(=O)OCC)C2)cc1O` [KLS-13022, ethyl 3-(3,5-dihydroxy-4-((1R,6R)-3-methyl-6-(prop-1-en-2-yl)cyclohex-2-enyl)benzyl)azetidine-1-carboxylate], the IC50 (commonly the midpoint of a concentration-inhibition curve) in the data set with TNFα was 0.38 µM. In data set [1], this molecule registered a non-toxic concentration range not above 1.67 µM and a toxic concentration of 3.3 µM. Also, the EC50 (in general, the concentration at which the effect is half-maximal) in data set [2] came to 25.6 µM.
